Results published in patent publication US20110129844A1, “Use of Activating Transcription Factor-2 (ATF2) for Detecting Skin Cancer” (priority 2007, published 2011).
Read-outs that look alike come from different tables or passages of the source.

Experiments:
epidermis = conditions: three topical applications of TPA at 10 μg each; for thickness of hyperplastic epidermis (mean±SD): 18 hrs post treatment; for thickness of epidermal layers: after 48 hrs
Procedure: Measurement of Hyperplasia. Hyperplasia was assessed in six WT and K14.ATF2^f/f mice (8-week-old) after treatment with acetone or TPA at the indicated time points. The thickness of the epidermis (μm) was measured using an image system (SlideBook-Intelligent imaging) in 15 fields per section.
In order to determine the possible effect of ATF2 disruption on keratinocyte proliferation possible changes in epidermal hyperplasia was assessed.

basal epidermal cells = assay: BrdU incorporation in basal keratinocytes after TPA treatment; assay type: in vivo, mice
Procedure: 5-bromo-2-deoxyuridine (BrdU) incorporation. 8-week-old K14.ATF2^f/f mice and WT mice were shaved 2 days before treatment with TPA (10 μg/200 μl acetone). BrdU (0.1 mg/g body weight) was injected intraperitoneally 1 h before the mice were sacrificed. The mice were euthanized 7, 24 and 48 h after six TPA treatments and their dorsal skins were removed, fixed in formalin and processed for paraffin embedding. Immunohistochemical staining was performed with a monoclonal anti-BrdU antibody (Sigma Aldrich, 1:100), which was applied to each section overnight at 4° C. after masking mouse IgG according to the protocol of the M.O.M. kit. […] BrdU positive and negative basal cells were counted in three to five randomly selected areas of each skin section (3-4 sections per mouse) and the mean percentage of BrdU-positive cells and standard deviation (s.d.) for each treatment group were determined.
Induced DNA synthesis in basal epidermal cells of TPA-treated K14.ATF2^f/f mice. In light of the enhanced hyperplastic responses seen in the epidermis of K14.ATF2^f/f mice, possible changes in the rate of keratinocyte proliferation, which could account for the increased hyperplasia, were assessed. BrdU labeling was carried out to quantify DNA synthesis in basal keratinocytes. […]

SMILES | thickness of hyperplastic epidermis (mean±SD) (epidermis; K14.ATF2f/f mice) | thickness of epidermal layers (epidermis; K14.ATF2f/f mice) | thickness of hyperplastic epidermis (mean±SD) (epidermis; WT mice) | thickness of epidermal layers (epidermis; wild-type mice) | papilloma development (epidermal keratinocytes; DMBA or TPA alone, WT or ATF2 mutant mice) | percentage of BrdU-labeled basal cells (basal epidermal cells; K14.ATF2f/f mice, 24 h after TPA treatment) | percentage of BrdU-labeled basal cells (basal epidermal cells; wild-type mice, 24 hours after TPA treatment) | mice having developed tumors (epidermal keratinocytes; mouse, in vivo) | mice that had developed tumors (epidermal keratinocytes; mouse, in vivo) | papilloma development (epidermal keratinocytes; mouse, in vivo) | time at which papillomas started to appear after DMBA treatment (epidermal keratinocytes; mouse, in vivo)
CCCCCCCCCCCCCC(=O)O[C@@H]1[C@@H](C)[C@@]2(O)[C@@H](C=C(CO)C[C@]3(O)C(=O)C(C)=C[C@@H]23)[C@H]2C(C)(C)[C@]12OC(C)=O [TPA] | 42±3.2 μm | 102±2.8 μm | 21±2.6 μm | 45±2.3 μm | did not result in papilloma development | 32±3.0% | 15±3% | – | – | – | –
Cc1c2ccccc2c(C)c2c1ccc1ccccc12 [DMBA, 7,12-dimethylbenz[a]anthracene] | – | – | – | – | – | – | – | 50% | about 40% | did not result in papilloma development | around 17 weeks
